Measured values reported in DBAASP.
≈ marks a conversion by molar mass, not a printed value.

What was measured:
Assay in all cases: ≥ marks a high value that may be exact or a test limit, other limits are often not marked, values filed in µg/mL are converted to µM
[1] = system: Enterococcus faecium ATCC 19434
[2] = system: Staphylococcus aureus ATCC 29213
[3] = system: Klebsiella pneumoniae ATCC 13883
[4] = system: Bacillus subtilis ATCC 6633
[5] = system: Pseudomonas aeruginosa ATCC 27853
[6] = system: Escherichia coli ATCC 25922
[7] = system: Enterococcus faecalis ATCC 19433
[8] = system: Proteus mirabilis CCUG 26767
[9] = system: Salmonella enterica subsp. enterica serovar Typhimurium LT2
[10] = system: Micrococcus luteus NCIMB 13267
[11] = system: Staphylococcus aureus ATCC 6538
Escherichia coli K-12 = system: Escherichia coli K-12
[12] = system: Pseudomonas aeruginosa PAO1
[13] = system: Staphylococcus aureus ATCC 9144
Candida krusei NCPF 3876 = system: Candida krusei NCPF 3876
[14] = system: Acinetobacter baumannii ATCC 17978
[15] = system: Staphylococcus aureus USA 300
[16] = system: Klebsiella pneumoniae NCTC 13368
[17] = system: Escherichia coli NCTC 12923
[18] = system: Candida albicans ATCC 90028
[19] = system: Pseudomonas aeruginosa PA214
[20] = system: Klebsiella pneumoniae KpC+001825971
[21] = system: Escherichia coli KpC+001812446

`CC[C@H](C)[C@H](NC(=O)[C@H](CC(C)C)NC(=O)[C@@H]1CCCN1C(=O)[C@H](CC(C)C)NC(=O)[C@@H](N)Cc1ccccc1)C(=O)N[C@@H](CC(C)C)C(=O)N[C@@H](Cc1ccccc1)C(=O)N[C@@H](Cc1c[nH]c2ccccc12)C(=O)N[C@H](C(=O)N[C@H](C(=O)N[C@H](C(=O)N[C@@H](C)C(=O)N[C@@H](CC(C)C)C(N)=O)[C@@H](C)O)C(C)C)[C@@H](C)CC` [FLPLILFWIVTAL] was tested, and the MIC [1] was no less than 388 µM, the MIC [2] was greater than 388 µM and the MIC [3] was no less than 388 µM. It also gave an MIC [4] of no less than 388 µM, an MIC [5] greater than 388 µM and an MIC [6] greater than 388 µM. It also gave an MIC [7] of no less than 388 µM, an MIC [8] of no less than 388 µM and an MIC [9] of no less than 388 µM.

`CC(C)C[C@H](NC(=O)[C@H](CO)NC(=O)[C@H](CCC(=O)O)NC(=O)[C@H](CC(C)C)NC(=O)[C@H](CCC(N)=O)NC(=O)[C@H](CCC(N)=O)NC(=O)[C@H](CCC(=O)O)NC(=O)[C@H](CC(C)C)NC(=O)[C@H](CCC(N)=O)NC(=O)[C@H](CO)NC(=O)[C@H](CC(C)C)NC(=O)[C@H](CCC(=O)O)NC(=O)[C@H](CCC(N)=O)NC(=O)[C@H](CCC(=O)O)NC(=O)[C@H](CC(C)C)NC(=O)[C@H](CO)NC(=O)[C@H](CCC(N)=O)NC(=O)[C@H](C)NC(=O)[C@H](CCC(=O)O)NC(=O)[C@H](CCC(N)=O)NC(=O)[C@H](CCC(=O)O)NC(=O)[C@H](Cc1ccccc1)NC(=O)[C@H](CCC(N)=O)NC(=O)[C@H](C)NC(=O)[C@H](Cc1ccccc1)NC(=O)[C@H](CCC(=O)O)NC(=O)CN)C(=O)O` [GEFAQFEQEAQSLEQELSQLEQQLESL] was tested, and the MIC [10] was no less than 200 µM, the MIC [11] was greater than 200 µM and the MIC [4] was no less than 200 µM. The MIC [5] was greater than 200 µM and the MIC (Escherichia coli K-12) was no less than 200 µM.

For `CC[C@H](C)[C@H](N)C(=O)N[C@@H](CCCN=C(N)N)C(=O)NCC(=O)N[C@@H](Cc1ccc(O)cc1)C(=O)N[C@@H](CCCCN)C(=O)NCC(=O)NCC(=O)N[C@@H](Cc1ccc(O)cc1)C(=O)N[C@@H](CS)C(=O)N[C@@H](CCCCN)C(N)=O` [IRGYKGGYCK], the MIC [12] was greater than 112 µM, the MIC [13] was no less than 112 µM and the MIC (Candida krusei NCPF 3876) was no less than 112 µM. The MIC [14] was no less than 112 µM, the MIC [15] was no less than 112 µM and the MIC [16] was no less than 112 µM. For the same molecule, the MIC [17] was no less than 112 µM and the MIC [18] was 15.4 µM (≈ 17.6 µg/mL).

For `CC(C)C[C@H](NC(=O)[C@H](Cc1ccccc1)NC(=O)[C@H](C)NC(=O)[C@H](C)NC(=O)[C@H](CCCCN)NC(=O)[C@H](CCCCN)NC(=O)[C@H](CCCCN)NC(=O)[C@@H](N)CCCCN)C(=O)N[C@@H](CCCCN)C(=O)N[C@@H](CC(C)C)C(=O)N[C@@H](Cc1c[nH]c2ccccc12)C(=O)N[C@@H](CC(C)C)C(=O)N[C@@H](CCCCN)C(=O)N[C@@H](CC(C)C)C(=O)N[C@@H](Cc1ccccc1)C(=O)N[C@@H](C)C(=O)N[C@@H](C)C(N)=O` [KKKKAAFLKLWLKLFAA], the MIC [12] was greater than 50 µM, the MIC [19] was no less than 50 µM and the MIC (Escherichia coli K-12) was 12.5 µM (≈ 25 µg/mL).

In the case of `CC[C@H](C)[C@H](NC(=O)[C@H](CCCCN)NC(=O)[C@H](CCCCN)NC(=O)[C@H](Cc1ccccc1)NC(=O)[C@H](CC(C)C)NC(=O)[C@H](CCCCN)NC(=O)[C@H](Cc1c[nH]c2ccccc12)NC(=O)[C@H](CCCCN)NC(=O)[C@H](Cc1cnc[nH]1)NC(=O)[C@@H](NC(=O)[C@@H](N)C(C)C)[C@@H](C)CC)C(=O)NCC(=O)N[C@@H](C)C(=O)N[C@H](C(=O)N[C@@H](CC(C)C)C(=O)N[C@@H](CCCCN)C(=O)N[C@H](C(=O)N[C@@H](CC(C)C)C(=O)O)C(C)C)C(C)C` [VIHKWKLFKKIGAVLKVL], the MIC [3] is reported as 30 µM (≈ 63.6 µg/mL), the MIC [20] is reported as 8 µM (≈ 17 µg/mL) and the MIC [6] is reported as 4 µM (≈ 8.48 µg/mL). It also gave an MIC [21] of 4 µM (≈ 8.48 µg/mL).
